Data taken from patent publication US9827292B2, “Use of KGF in the treatment of menopausal disorders” (Università degli Studi di Roma “La Sapienza”, priority 2012, dated 2017).

B1: keratinocyte growth factor (protein, listed as Homo sapiens)
chain: MHKWILTWILPTLLYRSCFHIICLVGTISLACNDMTPEQMATNVNCSSPERHTRSYDYMEGGDIRVRRLFCRTQWYLRIDKRGKVKGTQEMKNNYNIMEIRTVAVGIVAIKGVESEFYLAMNKEGKLYAKKECNEDCNFKELILENHYNTYASAKWTHNGGEMFVALNQKGIPVRGKKTKKEQKTAHFLPMAIT
notes: human recombinant KGF (Upstate Biotechnology)

Tests used:
[1] = Serum concentrations of E2 and KGF by ELISA in treated mice; type: in vivo, mouse; conditions: daily treatment for 60 days, ovariectomised mice, FIG. 7A
Protocol: The mouse strain CD1 was used in this study (Charles Rivers). The mice were held in a standard housing for laboratory animals with controlled lighting (12 h/day) and temperature (25±1° C.) and were provided with food and water ab libitum. All the experimental protocols concerning animals were in line with the Guidelines of Sapienza University for the care and use of laboratory animals and were approved by the Ethical Committee of the aforesaid institution. Forty female mice were subjected to an ovariectomy for the purpose of inducing vaginal atrophy and were administered a diet of Altromin C1000 without phytoestrogens (Altromin, Lage, Germany) for the duration of the experiments. After 30 days, the mice were treated locally, introducing daily into the vaginal canal 25 μl of hydrogel loaded with KGF (10 or 30 ng/day) or with E2 (30 ng/day or 1 μg/day). A control group was treated only with hydrogel. After 60 days of treatment, the mice were killed and the vaginas were immediately explanted, fixed in formalin and processed for histological analysis.
The concentrations of E2 and KGF in the serum of treated mice were measured using an ELISA standard kit (R & D Systems, Minneapolis, Minn., USA). The sensitivity of the ELISA assay was ≧10 pg/mL. Standard preparations of E2 or KGF were used as internal controls. The values are presented as mean±standard deviation. […]

[2] = tested on: KGFR; test: KGFR mRNA expression by real-time PCR in MCF-7 cells; type: cell-based, human; conditions: E2 20 ng/ml, 24 h, normalised to 18s, FIG. 3B
Protocol: (§1) The oestrogen receptor α-positive MCF-7 human breast adenocarcinoma cell line, acquired from American Type Culture Collection (no. HTB-22, ATCC-LGC Promochem, Teddington, UK), was cultured in Dulbecco's modified eagle's medium (DMEM; Invitrogen, Karlsruhe, Germany), supplemented with 10% foetal bovine serum (FBS; Invitrogen) and antibiotics. Primary cultures of human oestrogen-sensitive keratinocytes (KCs) were established from 1 cm^2 full-thickness mucosal biopsy of the vaginal vestibule. Following enzymatic dissociation, the keratinocytes were seeded onto culture plates coated with collagen IV (10 mg/ml), as previously reported [Panici et al, 2007], and were maintained in basal medium of the keratinocytes (KBM, Lonza) supplemented with aliquots of KGM (Lonza), with medium change twice a week. […]
The cells were harvested and the total RNA was extracted with the use of TRIzol reagent (Invitrogen). cDNA was generated with oligo (dT) from 1 μg of RNA using the SuperScript III reverse transcriptase kit (Invitrogen). After reverse transcription, the abundance of KGFR in MCF-7 cells treated and untreated with E2 was quantified by Q-RT-PCR. […] Relative quantification was performed using mRNA 18s as an endogenous control. The data were expressed as a rise of mRNA of KGFR compared to the control.

[3] = tested on: ER alpha; test: Western blot of ER alpha phosphorylation (Ser118) in MCF-7 cells; type: cell-based, human; conditions: 20 ng/ml, FIG. 2D
Protocol: as §1
MCF-7 cells untreated or treated with KGF or E2 were lysed in RIPA buffer. […] The bound antibody was detected by enhanced chemiluminescence detection reagents (Pierce Biotechnology, Inc, Rockford, Ill., USA), according to manufacturer's instructions. […] Densitometric analysis was performed using Quantity One Program (Bio-Rad Laboratories srl, Segrate, MI, Italy).

Molecule | release into the bloodstream (serum levels by ELISA) after local vaginal treatment [1] | KGFR mRNA expression compared to untreated cells [2] | phosphorylation of ER alpha (Ser118) [3]
C[C@]12CC[C@@H]3c4ccc(O)cc4CC[C@H]3[C@@H]1CC[C@@H]2O [E2, 17β-oestradiol] | reached the bloodstream even after treatment at low doses | 2.2 fold increase | –
B1 | – | – | able to induce, equally to E2, phosphorylation of ER alpha
